According to US10472356B2, “Bicyclic ketone sulfonamide compounds” (AMGEN INC., priority 2015, dated 2019):

Columns and labels:
human Nav1.7 [1] = molecular target: T1, human Nav1.7 (Homo sapiens, UniProt Q15858); test: Nav 1.7 IWB In Vitro Assay (IonWorks Barracuda); assay type: cell-based; settings: HEK293 cells stably transfected with human Nav 1.7; IonWorks Barracuda population patch-clamp; cells clamped to −20 mV for 4 minutes with compound; 26th pulse; read-out: hNav1.7 IWB IC50
T1 construct: expressed in transfected cells; host or cells: HEK293
T1 sequence (Q15858 whole entry): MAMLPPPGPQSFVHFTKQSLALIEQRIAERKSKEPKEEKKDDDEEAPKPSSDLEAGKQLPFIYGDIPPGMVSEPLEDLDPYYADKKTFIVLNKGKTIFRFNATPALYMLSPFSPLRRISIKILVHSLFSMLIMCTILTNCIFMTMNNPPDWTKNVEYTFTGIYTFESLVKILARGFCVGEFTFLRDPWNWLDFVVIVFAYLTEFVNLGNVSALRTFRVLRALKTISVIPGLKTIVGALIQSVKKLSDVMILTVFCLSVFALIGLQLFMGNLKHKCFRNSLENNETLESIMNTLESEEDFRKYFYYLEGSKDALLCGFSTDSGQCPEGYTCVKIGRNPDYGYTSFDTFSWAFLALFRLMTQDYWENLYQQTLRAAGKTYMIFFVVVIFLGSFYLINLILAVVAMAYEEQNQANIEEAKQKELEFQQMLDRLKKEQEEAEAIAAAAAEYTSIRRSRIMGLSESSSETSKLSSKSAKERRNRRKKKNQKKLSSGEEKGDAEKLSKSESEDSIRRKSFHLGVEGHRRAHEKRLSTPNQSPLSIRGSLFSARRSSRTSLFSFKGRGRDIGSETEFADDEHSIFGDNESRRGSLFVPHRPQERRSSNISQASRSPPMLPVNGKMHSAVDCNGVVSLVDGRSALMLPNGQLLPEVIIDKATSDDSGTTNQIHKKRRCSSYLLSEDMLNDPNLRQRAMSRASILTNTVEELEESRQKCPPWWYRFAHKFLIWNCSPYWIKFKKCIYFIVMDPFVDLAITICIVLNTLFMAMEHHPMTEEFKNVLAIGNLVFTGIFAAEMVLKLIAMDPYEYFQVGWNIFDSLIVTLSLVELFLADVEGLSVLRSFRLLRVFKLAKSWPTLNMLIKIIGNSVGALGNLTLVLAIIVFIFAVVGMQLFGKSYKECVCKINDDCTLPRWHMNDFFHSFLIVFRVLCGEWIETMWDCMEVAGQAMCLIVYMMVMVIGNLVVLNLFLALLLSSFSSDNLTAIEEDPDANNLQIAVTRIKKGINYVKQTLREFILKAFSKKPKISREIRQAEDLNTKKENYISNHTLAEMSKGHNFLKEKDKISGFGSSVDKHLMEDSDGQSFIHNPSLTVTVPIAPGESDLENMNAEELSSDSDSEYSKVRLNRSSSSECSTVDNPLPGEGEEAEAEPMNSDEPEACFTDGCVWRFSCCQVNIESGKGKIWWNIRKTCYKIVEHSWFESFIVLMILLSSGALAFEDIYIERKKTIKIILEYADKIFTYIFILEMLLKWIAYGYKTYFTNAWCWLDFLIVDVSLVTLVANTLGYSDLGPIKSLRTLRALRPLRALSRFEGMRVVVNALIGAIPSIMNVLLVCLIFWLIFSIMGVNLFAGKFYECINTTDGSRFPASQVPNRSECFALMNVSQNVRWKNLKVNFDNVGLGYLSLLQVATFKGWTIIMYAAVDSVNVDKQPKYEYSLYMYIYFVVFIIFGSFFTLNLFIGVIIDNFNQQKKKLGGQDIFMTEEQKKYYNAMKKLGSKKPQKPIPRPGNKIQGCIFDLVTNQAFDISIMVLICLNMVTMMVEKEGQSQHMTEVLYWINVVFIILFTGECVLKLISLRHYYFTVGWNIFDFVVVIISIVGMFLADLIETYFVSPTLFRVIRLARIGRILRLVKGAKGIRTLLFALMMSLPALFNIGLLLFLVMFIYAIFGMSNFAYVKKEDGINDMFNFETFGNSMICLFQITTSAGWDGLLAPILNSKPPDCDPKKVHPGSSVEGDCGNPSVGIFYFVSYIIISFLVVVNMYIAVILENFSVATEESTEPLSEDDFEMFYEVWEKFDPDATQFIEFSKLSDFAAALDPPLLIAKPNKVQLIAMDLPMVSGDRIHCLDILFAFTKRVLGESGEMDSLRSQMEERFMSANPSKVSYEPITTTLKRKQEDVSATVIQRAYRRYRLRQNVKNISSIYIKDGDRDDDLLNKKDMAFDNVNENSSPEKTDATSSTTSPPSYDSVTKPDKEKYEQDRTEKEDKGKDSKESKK
Method in brief: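 IC50 derived from concentration-response of percent block of the 26th-pulse peak inward current, compound vs none. Protocol: stable human Nav 1.7 HEK293 cells on automated population patch clamp, held at −110 mV, 5 Hz train of 150 ms steps to −20 mV, 4 min compound exposure depolarized at −20 mV, 3 s repolarization, train repeated.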

human Nav1.7 [2] = molecular target: T1, human Nav1.7; test: Nav 1.7 In Vitro PatchXpress (PX) Assay; assay type: cell-based; settings: HEK 293 cells stably transfected with human Nav1.7; PatchXpress whole cell voltage clamp; partially inactivated state (holding potential yielding 20 to 50% inactivation); read-out: hNav1.7 PX IC50
Method in brief: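 Percent inhibition of peak sodium current taken after 3 min exposure to one compound concentration, 3–5 cells each, with IC50 curve fits. Partially inactivated channels (20–50% inactivation at holding potential) in Nav1.7-HEK 293 cells, activated by 20 ms steps to −10 mV every 10 s.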

SMILES	IC50 (human Nav1.7 [1]) [µM]	IC50 (human Nav1.7 [2]) [µM]
COc1cc(-c2cc(F)cc(F)c2)c(F)cc1-n1c2c(ccc1=O)CN(S(=O)(=O)Nc1ncon1)CC2 (racemic) [Example 17-(Rac), (Rac)-N-1,2,4-oxadiazol-3-yl-2-oxo-1-(2,3′,5′-trifluoro-5-methoxy-4-biphenylyl)-1,5,7,8-tetrahydro-1,6-naphthyridine-6(2H)-sulfonamide]	0.191	1.12
COc1cc(-c2cc(F)cc(F)c2)c(F)cc1-n1c2c(ccc1=O)CN(S(=O)(=O)Nc1ccncn1)CC2 [Example 88, P-2-oxo-N-(pyrimidin-4-yl)-1-(2,3′,5′-trifluoro-5-methoxy-[1,1′-biphenyl]-4-yl)-1,2,7,8-tetrahydro-1,6-naphthyridine-6(5H)-sulfonamide]	0.0312	0.475
COc1cc(-c2cc(F)cc(Cl)c2)c(F)cc1-n1c2c(ccc1=O)CN(S(=O)(=O)Nc1cccnn1)CC2 (single isomer, unassigned) [Example 38-M, M-1-(3′-chloro-2,5′-difluoro-5-methoxy-4-biphenylyl)-2-oxo-N-3-pyridazinyl-1,5,7,8-tetrahydro-1,6-naphthyridine-6(2H)-sulfonamide]	0.662	3.12
COc1cc(-c2cc(F)cc(F)c2)c(F)cc1-n1c2c(ccc1=O)CN(S(=O)(=O)Nc1ccon1)[C@@H](C)C2 (single isomer, unassigned) [Example 3-C-P]	> 30	> 1
COc1cc(-c2cc(F)cc(F)c2)c(F)cc1-n1c2c(ccc1=O)[C@@H](C)N(S(=O)(=O)Nc1ccon1)CC2 [Example 3-A-P, P-(5R)-N-3-isoxazolyl-5-methyl-2-oxo-1-(2,3′,5′-trifluoro-5-methoxy-4-biphenylyl)-1,5,7,8-tetrahydro-1,6-naphthyridine-6(2H)-sulfonamide]	1.2	> 1
COc1cc(-c2ccc(F)c(F)c2)c(F)cc1-n1c2c(ccc1=O)CN(S(=O)(=O)Nc1ncccn1)CC2 (single isomer, unassigned) [Example 28-M, M-2-oxo-N-2-pyrimidinyl-1-(2,3′,4′-trifluoro-5-methoxy-4-biphenylyl)-1,5,7,8-tetrahydro-1,6-naphthyridine-6(2H)-sulfonamide]	> 10	> 30
COc1cc(-c2ccc(F)c(F)c2)c(F)cc1-n1c2c(ccc1=O)CN(S(=O)(=O)Nc1ccon1)CC2 (single isomer, unassigned) [Example 20-M, M-N-3-isoxazolyl-2-oxo-1-(2,3′,4′-trifluoro-5-methoxy-4-biphenylyl)-1,5,7,8-tetrahydro-1,6-naphthyridine-6(2H)-sulfonamide]	2.67	> 30
COc1cc(-c2cc(F)cc(F)c2)c(F)cc1-n1c2c(ccc1=O)[C@@H](C)N(S(=O)(=O)Nc1ccon1)CC2 (single isomer, unassigned) [Example 3-A-M]	2.8	> 1
COc1cc(-c2cc(F)cc(F)c2)c(F)cc1-n1c2c(ccc1=O)CN(S(=O)(=O)Nc1ccon1)[C@H](C)C2 [Example 3-D-M, M-(7R)-N-3-isoxazolyl-7-methyl-2-oxo-1-(2,3′,5′-trifluoro-5-methoxy-4-biphenylyl)-1,5,7,8-tetrahydro-1,6-naphthyridine-6(2H)-sulfonamide]	> 7.5	> 1
COc1cc(-c2cc(F)cc(F)c2)c(F)cc1-n1c2c(ccc1=O)[C@H](C)N(S(=O)(=O)Nc1ccon1)CC2 [Example 3-B-M, M-(5S)-N-3-isoxazolyl-5-methyl-2-oxo-1-(2,3′,5′-trifluoro-5-methoxy-4-biphenylyl)-1,5,7,8-tetrahydro-1,6-naphthyridine-6(2H)-sulfonamide]	> 30	> 1

Continued, values first:

IC50 (human Nav1.7 [1]) [µM]	IC50 (human Nav1.7 [2]) [µM]	SMILES
0.0062	0.02	COc1cc(Cl)cc(-c2cc(OC)c(-n3c4c(ccc3=O)CN(S(=O)(=O)Nc3cccnn3)CC4)cc2F)c1 [Example 70, P-1-(3′-chloro-2-fluoro-5,5′-dimethoxy-[1,1′-biphenyl]-4-yl)-2-oxo-N-(pyridazin-3-yl)-1,2,7,8-tetrahydro-1,6-naphthyridine-6(5H)-sulfonamide]
0.0443	0.993	COc1cc(-c2ccc(Cl)c(C)c2)c(F)cc1-n1c2c(ccc1=O)CN(S(=O)(=O)Nc1ncccn1)CC2 (racemic) [Example 30, (Rac)-1-(4′-chloro-2-fluoro-5-methoxy-3′-methyl-4-biphenylyl)-2-oxo-N-2-pyrimidinyl-1,5,7,8-tetrahydro-1,6-naphthyridine-6(2H)-sulfonamide]
0.0259	0.241	COc1cc(-c2cc(F)cc(Cl)c2)ccc1-n1c2c(ccc1=O)CN(S(=O)(=O)Nc1cccnn1)CC2 (single isomer, unassigned) [Example 8-P, P-1-(3′-chloro-5′-fluoro-3-methoxy-4-biphenylyl)-2-oxo-N-3-pyridazinyl-1,5,7,8-tetrahydro-1,6-naphthyridine-6(2H)-sulfonamide]
0.018	0.232	COc1cc(-c2ccc(F)c(C)c2)c(F)cc1-n1c2c(ccc1=O)CN(S(=O)(=O)Nc1cccnn1)CC2 [Example 73, P-1-(2,4′-difluoro-5-methoxy-3′-methyl-[1,1′-biphenyl]-4-yl)-2-oxo-N-(pyridazin-3-yl)-1,2,7,8-tetrahydro-1,6-naphthyridine-6(5H)-sulfonamide]
0.0007	0.0052	COc1cc(-c2cc(F)cc(Cl)c2)c(Cl)cc1-n1c2c(ccc1=O)CN(S(=O)(=O)Nc1ccon1)CC2 [Example 53, P-1-(2,3′-dichloro-5′-fluoro-5-methoxy-4-biphenylyl)-N-3-isoxazolyl-2-oxo-1,5,7,8-tetrahydro-1,6-naphthyridine-6(2H)-sulfonamide]
0.0116	0.0413	COc1cc(-c2cc(C)cc(C(F)(F)F)c2)c(F)cc1-n1c2c(ccc1=O)CN(S(=O)(=O)Nc1cccnn1)CC2 [Example 75, P-1-(2-fluoro-5-methoxy-3′-methyl-5′-(trifluoromethyl)-[1,1′-biphenyl]-4-yl)-2-oxo-N-(pyridazin-3-yl)-1,2,7,8-tetrahydro-1,6-naphthyridine-6(5H)-sulfonamide]
0.0459	0.386	COc1cc(-c2cc(F)cc(Cl)c2)c(F)cc1-n1c2c(ccc1=O)CN(S(=O)(=O)Nc1cc(C)ncn1)CC2 (racemic) [4-(Rac), (Rac)-1-(3′-chloro-2,5′-difluoro-5-methoxy-4-biphenylyl)-N-(6-methyl-4-pyrimidinyl)-2-oxo-1,5,7,8-tetrahydro-1,6-naphthyridine-6(2H)-sulfonamide]
0.0038	0.156	COc1cc(-c2cc(C)ccc2Cl)c(F)cc1-n1c2c(ccc1=O)CN(S(=O)(=O)Nc1cccnn1)CC2 [Example 43, P-1-(2′-chloro-2-fluoro-5-methoxy-5′-methyl-4-biphenylyl)-2-oxo-N-3-pyridazinyl-1,5,7,8-tetrahydro-1,6-naphthyridine-6(2H)-sulfonamide]
0.0019	0.0661	COc1cc(-c2cc(C(F)(F)F)cnc2OC)c(F)cc1-n1c2c(ccc1=O)CN(S(=O)(=O)Nc1cccnn1)CC2 [Example 64, P-1-(5-fluoro-2-methoxy-4-(2-methoxy-5-(trifluoromethyl)pyridin-3-yl)phenyl)-2-oxo-N-(pyridazin-3-yl)-1,2,7,8-tetrahydro-1,6-naphthyridine-6(5H)-sulfonamide]
0.0065	0.0481	COc1ccc(Cl)cc1-c1cc(OC)c(-n2c3c(ccc2=O)CN(S(=O)(=O)Nc2cccnn2)CC3)cc1F [Example 59, P-1-(5′-chloro-2-fluoro-2′,5-dimethoxy-[1,1′-biphenyl]-4-yl)-2-oxo-N-(pyridazin-3-yl)-1,2,7,8-tetrahydro-1,6-naphthyridine-6(5H)-sulfonamide]
0.101	0.666	COc1cc(-c2cc(F)cc(Cl)c2)c(F)cc1-n1c2c(ccc1=O)CN(S(=O)(=O)Nc1ccnc(C)n1)CC2 (racemic) [6-(Rac), (Rac)-1-(3′-chloro-2,5′-difluoro-5-methoxy-4-biphenylyl)-N-(2-methyl-4-pyrimidinyl)-2-oxo-1,5,7,8-tetrahydro-1,6-naphthyridine-6(2H)-sulfonamide]
0.0005	0.0069	COc1cc(-c2cccc(C(F)(F)F)c2)c(Cl)cc1-n1c2c(ccc1=O)CN(S(=O)(=O)Nc1ccon1)CC2 [Example 54, P-1-(2-chloro-5-methoxy-3′-(trifluoromethyl)-4-biphenylyl)-N-3-isoxazolyl-2-oxo-1,5,7,8-tetrahydro-1,6-naphthyridine-6(2H)-sulfonamide]
0.0042	0.0388	COc1cc(OC(F)(F)F)cc(-c2cc(OC)c(-n3c4c(ccc3=O)CN(S(=O)(=O)Nc3cccnn3)CC4)cc2F)c1 [Example 76, P-1-(2-fluoro-3′,5-dimethoxy-5′-(trifluoromethoxy)-[1,1′-biphenyl]-4-yl)-2-oxo-N-(pyridazin-3-yl)-1,2,7,8-tetrahydro-1,6-naphthyridine-6(5H)-sulfonamide]
0.0077	0.0294	COc1ccc(C(F)(F)F)cc1-c1cc(OC)c(-n2c3c(ccc2=O)CN(S(=O)(=O)Nc2cccnn2)CC3)cc1F [Example 74, P-1-(2-fluoro-2′,5-dimethoxy-5′-(trifluoromethyl)-[1,1′-biphenyl]-4-yl)-2-oxo-N-(pyridazin-3-yl)-1,2,7,8-tetrahydro-1,6-naphthyridine-6(5H)-sulfonamide]
